Laboratory results: paper PMC3050527 (Bioorganic & medicinal chemistry, 2010)
Entries after “also recorded” stand apart in the source; their conditions may differ.

Legend:
Assay type in all cases: biochemical
hGIIA sPLA2 = target: T1, hGIIA sPLA2 (Homo sapiens, UniProt P14555); assay: continuous fluorimetric sPLA2 assay, human GIIA; details: compared with GK126
T1 sequence (P14555 21-144): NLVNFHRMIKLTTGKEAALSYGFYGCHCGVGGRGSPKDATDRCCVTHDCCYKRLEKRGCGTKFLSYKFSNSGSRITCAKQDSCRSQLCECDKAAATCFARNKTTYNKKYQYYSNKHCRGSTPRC

hGX sPLA2 = target: T2, hGX sPLA2 (Homo sapiens, UniProt O15496); assay: continuous fluorimetric sPLA2 assay, human GX
T2 sequence (O15496 43-165): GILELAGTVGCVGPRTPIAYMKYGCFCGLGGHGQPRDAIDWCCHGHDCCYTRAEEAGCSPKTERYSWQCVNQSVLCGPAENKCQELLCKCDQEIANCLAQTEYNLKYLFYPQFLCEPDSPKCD

cPLA2 = target: T3, cPLA2 (Homo sapiens, UniProt P47712); assay: inhibition of cPLA2; details: at 1µµ
T3 sequence (P47712 1-749): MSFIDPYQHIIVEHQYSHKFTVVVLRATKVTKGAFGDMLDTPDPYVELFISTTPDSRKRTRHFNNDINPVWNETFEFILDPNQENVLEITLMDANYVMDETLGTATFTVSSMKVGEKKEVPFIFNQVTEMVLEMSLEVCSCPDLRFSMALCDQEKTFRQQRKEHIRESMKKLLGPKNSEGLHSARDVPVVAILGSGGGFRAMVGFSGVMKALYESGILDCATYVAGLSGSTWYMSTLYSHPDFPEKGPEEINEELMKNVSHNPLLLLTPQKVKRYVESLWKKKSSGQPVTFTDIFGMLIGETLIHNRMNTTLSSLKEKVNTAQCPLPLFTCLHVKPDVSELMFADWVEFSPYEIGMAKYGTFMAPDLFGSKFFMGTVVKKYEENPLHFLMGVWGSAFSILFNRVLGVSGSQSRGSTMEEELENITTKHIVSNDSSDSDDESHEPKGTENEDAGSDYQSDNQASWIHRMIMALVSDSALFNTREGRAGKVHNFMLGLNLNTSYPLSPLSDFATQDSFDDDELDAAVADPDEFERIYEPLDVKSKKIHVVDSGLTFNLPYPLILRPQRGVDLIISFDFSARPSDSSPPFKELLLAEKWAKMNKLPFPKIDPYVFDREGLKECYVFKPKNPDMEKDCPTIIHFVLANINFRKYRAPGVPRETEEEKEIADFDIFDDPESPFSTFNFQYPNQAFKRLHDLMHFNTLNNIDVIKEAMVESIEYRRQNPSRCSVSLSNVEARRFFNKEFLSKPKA

Row | Structure (SMILES) | sPLA2 inhibitory activity (in words) (hGIIA sPLA2) | inhibition of human GX sPLA2 (in words) (hGX sPLA2) | inhibition against cPLA2 (cPLA2) [%]
1 | CCCCCCCCCCCCCCCC(=O)N[C@@H](CC(C)C)C(=O)O [GK144, (S)-4-Methyl-2-palmitamidopentanoic acid] | inactive | – | –
2 | CCCCCCCCCCCCCCC(=O)C(=O)N[C@@H](CC(C)C)C(=O)O [GK126, (S)-4-Methyl-2-(2-oxohexadecanamido)pentanoic acid] | – | did not show any inhibition; also recorded: did not display any measurable inhibition | ≤ 12
3 | CCCCCCCCCCCCCCC(=O)C(=O)N[C@@H](Cc1ccccc1)C(=O)O [GK141, (S)-2-(2-Oxohexadecanamido)-3-phenylpropanoic acid] | inactive | – | –
